In US9695102B2, “Alkali metal cinnamate powder and method for preparation” (Purac Biochem BV, priority 2009, dated 2017):

How the values were obtained:
Type in all cases: physicochemical
[1] = Average moisture content of resulting powder; settings: resulting powder after drying
[2] = Particle size distribution, Malvern Mastersizer 2000 laser diffraction; design: D (0.1) / D (0.5) / D (0.9) / D [3.2] / D [4.3]: unit not given here
From the text: Particle size distribution has been measured with a Malvern Mastersizer 2000® particle size analyzer Measurement. Measuring principle is based on laser diffraction.

[3] = Hausner ratio from tapped and aerated bulk density, Micron Powder Characteristics Tester; settings: for Hausner Ratio: from tapped and aerated bulk density, flowability; for Tapped Bulk Density: tapped powder; for Aerated Bulk Density: untapped powder
Method: (§1) These are all standard measurements described in various text and hand books on powders and their properties. The various measurements were done using a Micron Powder Characteristics Tester™ (Model PT-N) from Hosokawa Micron International Inc.
(§2) The Hausner ratio is determined by measurement of the tapped and untapped (or aerated) bulk density. The angle of repose is determined by measurement of the angle of a cone of powder that is formed by pouring the powder through a glass funnel.

[4] = Angle of spatula, Micron Powder Characteristics Tester
Method: as §1
The angle of spatula is determined by measurement the difference in the angle of powder—that stays behind on a spatula when a container with said spatula on the bottom and filled with said powder is lowered and the spatula stays on the same height—and the angle of the powder on said spatula after the spatula was tapped by a weight.

[5] = Angle of repose, Micron Powder Characteristics Tester
Method: as §1, §2

With O=C([O-])C=Cc1ccccc1.[K+] [Experiment 1, potassium cinnamate] as the compound, how does the average moisture content [1] read?
The average moisture content was “less than 2 wt %”.

For O=C([O-])C=Cc1ccccc1.[K+] [Experiment 2, potassium cinnamate], which average moisture content [1] is on record?
The average moisture content was “about 0.5 wt %”.

For O=C([O-])C=Cc1ccccc1.[K+] [Potassium cinnamate commercially available], which “D (0.1)” value [2] is on record?
The value was 44.

And the “D (0.5)” value [2]?
Its value is 240.

And the “D (0.9)” value [2]?
The value was 601.

What about the “D [3.2]” value [2] of the same compound?
The value was 89.

What about the “D [4.3]” value [2] of the same compound?
The value was 286.

And the “Span (—)” value [2]?
The value was 2.32.

What about the “Hausner Ratio” value [3] of the same compound?
Its value is 1.66.

What about the “Hausner Ratio” value ([3]; listed as Commercially available potassium cinnamate) of the same compound?
Its value is “about 1.66”.

What about the “Tapped Bulk Density” value [3] of the same compound?
The value was 527 kg m^−3.

And the “Aerated Bulk Density” value [3]?
Its value is 318 kg m^−3.

With O=C([O-])C=Cc1ccccc1.[K+] [Potassium cinnamate of the present disclosure] as the compound, how does the “Angle of spatula [index]” value ([4]; flowability index word) read?
Its value is “normal”.

What about the Angle of spatula ([4]; powder on spatula before and after tapping) of the same compound?
Its Angle of spatula is 48.

What about the Angle of repose ([5]; cone of powder poured through glass funnel) of the same compound?
The Angle of repose was 35.6.

And the “Angle of repose [index]” value ([5]; flowability index word)?
Its value is “good”.

And the “D (0.1)” value [2]?
The value was 114.

And the “D (0.5)” value [2]?
The value was 192.

What about the “D (0.9)” value [2] of the same compound?
Its value is 320.

And the “D [3.2]” value [2]?
Its value is 178.

What about the “D [4.3]” value [2] of the same compound?
The value was 206.

What about the “Span (—)” value [2] of the same compound?
Its value is 1.07.

What about the Carr class ([3]; Carr flowability scale based on compaction) of the same compound?
Its Carr class is “Good”.

And the “Hausner Ratio” value [3]?
Its value is 1.15.

What about the “Tapped Bulk Density” value [3] of the same compound?
The value was 945 kg m^−3.

And the “Aerated Bulk Density” value [3]?
Its value is 823 kg m^−3.
